Literature values, collected in patent publication US20140199404A1, “METHOD FOR TREATING CANCER BASED ON LEVEL OF A NUCLEOSIDE TRANSPORTER” (ABRAXIS BIOSCIENCE, LLC, priority 2013, published 2014).

What was measured:
[1] = test system: locally advanced pancreatic cancer; details: patients with locally advanced pancreatic cancer
[2] = test system: pancreatic cancer; details: Moore et al. 2007

**Q.** Which results are given for `Nc1ccn([C@@H]2O[C@H](CO)[C@@H](O)C2(F)F)c(=O)n1` [gemcitabine]?
**A.** median overall survival [1]: 5.7 months; median time to disease progression [1]: 2.1 months; median overall survival [2]: 6.0 months; median progression free survival [2]: 3.5 months

**Q.** Which median overall survival [1] does the source give for `O=c1[nH]cc(F)c(=O)[nH]1` [5-FU, 5-fluororuracil] here?
**A.** Its median overall survival is 4.2 months.

**Q.** What about the “median time to disease progression” value [1] of the same compound?
**A.** The value was 0.9 months.
